Experimental data published in patent US20180371021A1, “PEPTIDOMIMETIC MACROCYCLES AND USES THEREOF” (Aileron Therapeutics, Inc., priority 2017, published 2018).
Values joined by “and” are separate entries in the source; they are usually repeats but may differ in a detail not shown here. Identical values can stand only once. “Also recorded” adds a separate entry of the source.

Key:
[1] = Phase 1 dose-escalation trial of AP1: safety and tolerability; format: in vivo, human
Text: 71 patients were enrolled in the dose-escalation trial. The trial used a “3+3” dose-escalation design.
Starting with dose level 4, patients who had cancers associated with HPV were excluded from enrollment because HPV is known to destroy WT p53.
FIG. 2 illustrates the dosing regiments (DRs) used in the “3+3” dose escalation trial.
Eight patients experienced dose reductions, including two patients who had been on study treatment for over 1 year, and another patient who had been on study treatment for 11 months. […] Both events were Grade 3 hypotension and were at the 3.1 mg/kg and the 4.4 mg/kg once-weekly dosing levels. […] Five patients discontinued treatment with AP1 due to these events.

[2] = Phase 1 dose-escalation trial of AP1: pharmacokinetic profile; format: in vivo, human; settings: patients, I.V. infusion
Text: Data were collected at different time points after the start of infusion (SOI) and the end of infusion (EOI).

MIC-1 = test: Phase 1 dose-escalation trial of AP1: plasma MIC-1 biomarker; format: in vivo, human; settings: plasma MIC-1 after end of AP1 infusion
Protocol: Depending on the sample type, the PD biomarkers included measures of MDMX, MDM2, p21, p53, apoptosis, macrophage inhibitory cytokine 1, or MIC-1.
In the Phase 1 dose-escalation study, plasma MIC-1 levels were measured at several time points after initial infusion.

[3] = tested on: advanced solid tumors or lymphomas expressing WT p53; test: Phase 1 dose-escalation trial of AP1: anti-tumor activity (RECIST / IWG); format: in vivo, human
Protocol: Anti-tumor activity was measured using Response Evaluation Criteria in Solid Tumors (RECIST) criteria for patients with solid tumors, and 2015 International Working Group (IWG) criteria for patients with lymphomas. The RECIST and IWG criteria enabled the objective evaluation of whether a tumor had progressed, stabilized, or decreased in size. Anti-tumor effects were also determined through physical examinations or clinically validated blood or serum tumor markers.
Anti-tumor activity was measured using RECIST criteria for patients with solid tumors and the IWG criteria for patients with lymphomas to objectively evaluate whether a tumor progressed, stabilized, or shrunk.
The percent change in tumor volume for each evaluable patient (i.e., having measurable disease by CT or PET-CT scan) is plotted from the highest to lowest value, or low to high response, and each bar of the histogram is colored by the best overall response measured for that patient per RECIST or IWG criteria.

[4] = tested on: peripheral T-Cell Lymphoma (PTCL); test: Phase 2a clinical trial with AP1 in peripheral T-cell lymphoma; format: in vivo, human
Protocol: Based on the results of the dose-escalation study and the complete response observed in a patient with PTCL, a Phase 2a clinical trial was conducted in patients with PTCL.

[5] = tested on: human CD45 leukemic cells; test: Survival in an in vivo xenotransplantation model; parameters: species or system mice; settings: for Long term survival, mice still alive: 130 days post start of treatment
Text: The median survival for group 1 and group 2 was 34 days and 83 days, respectively (p<0.0001).

MCF-7 cells = test: MCF-7 cell proliferation (WST-1 / CyQUANT), AP1 and CDK4/CDK6 inhibitors; format: cell-based, human; settings: sequential treatment, 24 h pre-treatment
Protocol: The WST-1 variant of the MTT assay was used to measure cell viability. WST-1 is a cell-impermeable, sulfonated tetrazolium salt that can be used to examine cell viability without killing the cells. […] All media were supplemented with 10% (v/v) fetal calf serum, 100 units of penicillin, and 100 μg/mL of streptomycin at 37° C. and 5% CO2. Prior to dosing, MCF-7 cells were switched to serum-free medium and grown at 37° C. overnight. One day prior to assaying, the cells were trypsinized, counted, and seeded at pre-determined densities in 96-well plates as follows: MCF-7, 5000 cells/well/200 μL; MOLT-3, 30,000 cells/well/200 μL.
The concentration of ribociclib was kept constant.
The concentration of abemaciclib was kept constant.
Various MCF-7 cell numbers were plated and evaluated 3-7 days after plating to determine the optimal number of cells to be plated and to determine the treatment duration. […] MCF-7 cells were evaluated for viability using the WST-1 assay or the CyQUANT method 3-7 days or 120 h after beginning treatment.
The cells were evaluated for viability using the CyQUANT method after beginning the simultaneous treatments.
The cells were evaluated for viability using a WST-1 assay or MTT assay 3-7 days after beginning the treatments.
The data are expressed as log(CI).

[6] = tested on: SJSA-1 osteosarcoma xenograft; test: SJSA-1 osteosarcoma xenograft model, AP1 and palbociclib; format: in vivo, mice; settings: AP1 20 mg/kg qwkx4, palbociclib 75 mg/kg qdx22
Protocol: (§1) The group was not euthanized, and the mice were allowed to recover. […] Animals were monitored individually. […] Responders were followed for a longer period of time. When the endpoint was reached, the animals were euthanized. […] An aqueous phosphate-buffered saline solution or sodium lactate (50 mM, pH 4.0) solution was used as the vehicle.

[7] = tested on: MCF-7.1 human breast carcinoma xenograft; test: MCF-7.1 human breast carcinoma xenograft model, AP1 and palbociclib; format: in vivo, mice; settings: AP1 20 mg/kg qwkx4, palbociclib 75 mg/kg qdx22
Protocol: as §1, with “Female athymic nude mice were provided with drinking water with 10 μg/mL with 17 beta estradiol supplementation 3 days prior to cell implantation and for the duration of the study. […] The mice were between 8-12 weeks of age at the beginning of the study. […] The” for “The”

A549 xenograft = A549 xenograft model, AP1 and palbociclib; format: in vivo, mice
Text: The arrows indicate spontaneous tumor shrinkage in vehicle controls. The arrows with * indicate poor growth of tumors late in the study.

[8] = tested on: Acute Myeloid Leukemia (AML) or Myelodysplastic Syndrome (MDS), expressing WT p53; test: Clinical study of AP1 alone or with cytarabine in AML or MDS; format: in vivo, human; settings: evaluable patients with bone marrow biopsies before and after dosing
[9] = d22, calculated using vehicle median volumes on d0 and d22
[10] = three consecutive measurements > 150% of d1 volume

CC(=O)N[C@@H](CC(C)C)C(=O)N[C@H](C(=O)N[C@@H](Cc1ccccc1)C(=O)N[C@]1(C)CCCCCCC=CCCC[C@@](C)(C(=O)N[C@@H](C)C(=O)N[C@@H](C)C(=O)N[C@@H](C)C(=O)N[C@@H](C)C(=O)N[C@@H](C)C(=O)N[C@H](C)C(N)=O)NC(=O)[C@H](CC(C)C)NC(=O)[C@H](CCC(N)=O)NC(=O)[C@H](C)NC(=O)[C@H](Cc2c[nH]c3ccccc23)NC(=O)[C@H](Cc2ccc(O)cc2)NC(=O)[C@H](CCC(=O)O)NC1=O)[C@@H](C)O [AP1]
dose limiting toxicity (DLT) ([1]; 3.1 mg/kg once weekly dosing): One dose limiting toxicity (DLT) of Grade 3 fatigue | dose limiting toxicity (DLT) ([1]; […] once weekly): four DLTs (Grade 3 elevated alkaline phosphatase, Grade 3 hypotension, Grade 3 anemia, Grade 4 neutropenia) | patients with transient decreases in lymphocytes post-dosing and primarily Grade 1 and 2 abnormalities ([1]; full recovery within a few days): approximately 50% | MTD ([1]; human, in vivo, iv, dosed once a week by I.V. administration, patients): 3.1 mg/kg | tolerability as considered by the investigators ([1]; patients, dose escalation trial): generally well tolerated | most frequently reported drug-related events ([1]; reported by ≥10% of the patients): nausea, fatigue, vomiting, decreased appetite, anemia, headache, and constipation | maximum drug serum concentrations observed (Cmax) ([2]; all dose levels): dose-related increase | half-lives ([2]; higher dose levels): five and seven | doses achieving a maximal 24 hr MIC-1 increase above baseline (MIC-1): ≥ 2.1 mg/kg | responses with stabilization of tumor size (SDs) ([3]; 57 evaluable patients): 21 | stable diseased patients that exhibited tumor shrinkage ([3]; 57 evaluable patients): 7 | patient scans of the two CR patients ([3]; PTCL patient after six cycles, MCC patient after further treatment): the lymph node returned to its normal size; also recorded: showed no trace of cancer in the patient | max time a patient received AP1 ([3]; one patient): 613 days | response of the first patient enrolled in the Phase 2 study in PTCL ([4]; after 2 cycles of treatment): partial response | Best overall response ([4]; seven PTCL patients on AP1 therapy, one line per patient (patient 1 from dose escalation)): ODP | Days on treatment ([4]; seven PTCL patients on AP1 therapy, one line per patient (patient 1 from dose escalation), Dose escalation study): 487 days | Days on treatment ([4]; seven PTCL patients on AP1 therapy, one line per patient (patient 1 from dose escalation), Phase 2a study): 32 days and 1 days and 122 days and 134 days and 66 days and 53 days | Long term survival, mice still alive ([5]; group 2): 22% | Long term survival, mice still alive ([5]; group 3): 60% | median survival ([5]; group 2 (group 1: 34 days), p<0.0001): 83 days | overall survival ([5]; vs vehicle): doubled the overall survival | MCF-7 cell growth (MCF-7 cells): suppressed MCF-7 cell growth with or without treatment with palbociclib | Median tumor volume (mm^3) D1 ([6]; D1 (start of dosing), SJSA-1 xenograft, nude mice): 117 mm^3 | Median tumor volume (mm^3) D22 ([6]; D22, SJSA-1 xenograft, nude mice): 2150 mm^3 | Median time to tumor volume > 1000 mm^3 ([6]; SJSA-1 xenograft): 16 days | Median time to tumor volume > 2000 mm^3 ([6]; SJSA-1 xenograft): 21 days | % TGI (±SEM) on d22 (end of dosing) [6, 9]: 17 (6) % | Animals with disease progression [6, 10]: 10/10 | Median tumor volume (mm^3) D1 ([7]; D1 (start of dosing), MCF-7.1 xenograft, nude mice): 126 mm^3 | Median tumor volume (mm^3) D22 ([7]; D22, MCF-7.1 xenograft, nude mice): 473 mm^3 | Median time to tumor volume > 500 mm^3 ([7]; MCF-7.1 xenograft): 22 days | Median time to tumor volume > 1000 mm^3 ([7]; MCF-7.1 xenograft): 35 days | % TGI (±SEM) on d22 (end of dosing) [7, 9]: 30 (9) % | animals have reached endpoint ([7]; endpoint tumor volume > 1000 mm^3, MCF-7.1 xenograft): 10/10 animals | Animals with disease progression [7, 10]: 10/10 | Median time to tumor volume > 500 mm^3 (A549 xenograft; A549 xenograft, AP1 20 mg/kg qwkx4): 25 days | Median tumor volume (mm^3) D1 (A549 xenograft; D1 (start of dosing), A549 xenograft, nude mice, AP1 20 mg/kg qwkx4, palbociclib 75 mg/kg qdx22): 126 mm^3 | Median tumor volume (mm^3) D22 (A549 xenograft; D22, A549 xenograft, nude mice, AP1 20 mg/kg qwkx4, palbociclib 75 mg/kg qdx22): 405 mm^3 | % TGI (±SEM) on d22 (end of dosing) (A549 xenograft; d22, calculated using vehicle median volumes on d0 and d22, AP1 20 mg/kg qwkx4, palbociclib 75 mg/kg qdx22): 42 (7) % | Animals with disease progression (A549 xenograft; three consecutive measurements > 150% of d1 volume, AP1 20 mg/kg qwkx4, palbociclib 75 mg/kg qdx22): 10/10 | animals have reached endpoint (A549 xenograft; tumor volume > 500 mm^3, A549 xenograft, AP1 20 mg/kg qwkx4, palbociclib 75 mg/kg qdx22): 8/10 animals | patients who demonstrated stabilization of their disease [8]: 3
